Measurements: patent publication US20190358345A1, “A[…]-IN[…] NANOPARTICLES AND PREPARATION METHODS THEREFOR” (CHINA PHARMACEUTICAL UNIVERSITY, priority 2017, published 2019)

Experiment: Dynamic light scattering of nanoparticles
Type: physicochemical
Details: self-assembled in aqueous solution
Experimental: The foregoing amphiphilic nonsteroid anti-inflammatory platinum is dissolved in DMF, dropped into an aqueous solution at room temperature, and the DMF is removed by dialysis to obtain an amphiphilic nonsteroid anti-inflammatory platinum nanoparticle solution. The dynamic light scattering results of the antitumor cisplatin-tonifamic acid nanoparticles prepared in this embodiment are shown in FIG. 3, and the means particle size of the nanoparticles is 157 nm.
CDDP (150 mg), AgNO3 (113 mg), tolfenamic acid (131 mg) and Na2CO3 (35.3 mg) are added to a round-bottom flask, then 10 ml of water is added and stirred at room temperature for 24 h in a dark place. The AgCl precipitate is centrifugally discarded, and the filtrate is dried in vacuum. The crude product is purified by silica gel column chromatography using an eluent of methanol:chloroform=1:9 to obtain the cisplatin-tolfenamic acid-based complex in a yield of 53%. The chemical structure of the complex synthesized in this embodiment is as shown in Formula 1. […]

Cc1c(Cl)cccc1[N]1c2ccccc2C(=O)[O][Pt]1([NH2])[NH2] [Embodiment 1, cisplatin-tolfenamic acid-based complex]
means particle size of the nanoparticles: 157 nm
